# Assay results from patent US6399633B1, “Use of 4-H-1-benzopryan-4-one derivatives as inhibitors of smooth muscle cell proliferation” (priority 1999, dated 2002).
# “Also recorded” adds a separate entry of the source. Like-named read-outs stand apart in the source and are kept apart here.
# What was measured:
# cyclin D1 = test: Western blot of cyclin D1 in HASMC; assay type: cell-based, human; details: flavopiridol 75 nmol/L pretreatment, 24 h
# Method: (§1) Western blot analysis—Quiescent HASMC were treated in the presence or absence of growth factors and/or flavopiridol as indicated. Western blot analysis was performed as previously described^18. The primary antibodies were: a polyclonal anti-human cyclin D1 antibody (M-20, Santa Cruz), a monoclonal anti-human proliferating cell nuclear antigen (PCNA) antibody (PC10, Sigma), a phosphorylation-specific p44/42 (Erk1/Erk2) MAP kinase monoclonal antibody (New England Biolabs), and a monoclonal anti-Rb antibody (G3-245, Pharmigen), which recognizes the phosphorylated (pRb) and highly phosphorylated (ppRb) Rb species. For immunoblotting studies, experiments were repeated at least three times.
# [1] = tested on: Human aortic smooth muscle cells (HASMC); test: Trypan-blue exclusion viability; assay type: cell-based; details: flavopiridol 75 nmol/L, quiescent HASMC
# Method: Trypan-blue exclusion—HASMC were grown in 5-cm dishes at low confluence and growth-arrested as described. Cells were treated with flavopiridol (75 nmol/L) or tumor necrosis factor-[…] (TNF-[…]; 50 ng/ml) for the indicated times. Following the removal of the medium, 0.4% trypan blue in phosphate-buffered saline was added to the dishes. After 5 min, the cells in the dishes were counted under the microscope. Blue cells were counted as nonviable cells.
# Rb = test: Western blot of Rb phosphorylation in HASMC; assay type: cell-based, human; details: flavopiridol 75 nmol/L, 24 h
# Method: as §1
# [2] = tested on: rat carotid artery neointimal formation; details: for PCNA-positive nuclei in the neointima: 5 mg/kg orally
# Method: Rat carotid injury model—Injury to the rat carotid artery was performed essentially as described^2. Adult male Sprague-Dawley rats (400-500 g, Zivic-Miller) were anesthetized with an intraperitoneal injection of ketamine ([…]) and xylazine (4 mg/kg). The left internal carotid was then cannulated with a 2F embolectomy catheter. The balloon was inflated with saline and withdrawn across the artery three times to produce a distending and denuding injury. The right carotid artery was uninjured and served as a control of injury for each animal. Immediately following recovery from anesthesia and for four additional days thereafter, rats were administered flavopiridol (5 mg/kg in water) or water by gavage in a blinded manner. […] At specified time points after carotid injury, rats were anesthetized as above and perfusion-fixed systemically with 4% paraformaldehyde in phosphate-buffered saline. Right and left carotid arteries were removed and distended by injection of 4% paraformaldehyde through the lumen, after which they were dehydrated and stored in 70% ethanol at 4° C. Immunohistochemistry was performed as previously described^18, using the monoclonal PCNA antibody and a polyclonal anti-human Cdk2 antibody (M2-G, Santa Cruz).
# Image analysis—The extreme distal and proximal regions of each artery (approx. 500 μm) were removed. Ten intermediate cross-sections (8 μm each) taken 500 μm apart were analyzed from each artery. Slides were fixed and stained with hematoxylin and eosin as previously described^18. Using a Nikon Diaphot 300 microscope and a 4× objective, each cross-section was captured as a digital image using a Hamamatsu C5985 video camera and TCPro 2.41 (Coreco, Inc.). Medial and neointimal areas were determined using NIH Image software. Medial and neointimal boundaries were determined by one slide reviewer (A.M.) and verified in a blinded fashion by a second reviewer (C.P.). Lesion size was expressed as the neointima/media ratio. Results for each group were expressed as the mean±SEM.
# [3] = tested on: Erk1 (p44 MAP kinase) and Erk2 (p42 MAP kinase); test: In-gel kinase assay (myelin basic protein) in HASMC; assay type: cell-based, human; details: growth factors 30 min
# Method: In-gel kinase assay—Quiescent HASMC were treated with growth factors for 30 min and total cell lysates were prepared as described for Western blotting. In some experiments, HASMC were pretreated for 60 min with 30 μmol/L PD98059, flavopiridol, or vehicle. Equal amounts of proteins (50 μg/lane) were resolved on a polyacrylamide gel that was copolymerized with 350 μg/ml myelin basic protein. The gel was treated with [γ-^32P]ATP and autoradiography was performed as described^19.
# [4] = tested on: Erk1 (p44 MAP kinase) and Erk2 (p42 MAP kinase); test: Western blot of phosphorylated Erk1/Erk2 in HASMC; assay type: cell-based, human; details: growth factors 30 min
# Method: as §1
# [5] = tested on: Human aortic smooth muscle cells (HASMC); test: Cell counts of growth-arrested HASMC; assay type: cell-based; details: bFGF 10 ng/ml, flavopiridol 75 nmol/L, three days; bFGF alone 3-fold increase
# Method: Cell culture—Human aortic smooth muscle cells (HASMC) were obtained from Clonetics and were cultured as previously described^18. Cells were used at passages 5-9. Prior to performing experiments, cells were growth-arrested at 80% confluence for 48 h with medium containing 0.2% fetal bovine serum. Cell counts—Growth-arrested HASMC grown to 50% confluence in 6-well plates were treated with or without flavopiridol (75 nmol/L) or bFGF (10 ng/ml). At intervals after treatment, cells were trypsinized and cell numbers determined using a hemocytometer.
# [6] = doses below the toxic threshold, Phase I human studies; cited from earlier work
# Cdc2 and Cdk2 = test: Cdk activity (histone H1 kinase assay) in HASMC lysates; assay type: cell-based, human; details: flavopiridol 75 nmol/L pretreatment, 24 h
# Method: Cdk activity—Quiescent HASMC were treated with agonists and inhibitors for 24 h and total cell lysates were prepared as described for Western blotting. The kinase assay was performed with a histone H1 kinase assay kit (Upstate Biotechnology) following the manufacturer's instructions. In brief, 10 μl of peptide inhibitors for protein kinase C (2 μmol/L) and protein kinase A (2 μmol/L), 100 μg cell lysate, 10 μl assay buffer and 10 μl of a mixture containing 75 μmol/L magnesium chloride, 500 μmol/L ATP and 1 μCi/ml [γ-^32P]ATP were mixed in a microcentrifuge tube. After incubation at 30° C. for 10 min, aliquots were pipetted onto phosphocellulose papers. The papers were washed in 0.75% phosphoric acid, followed by measurement of cpm in a scintillation counter (Beckman). Results are expressed as the mean±SEM for three samples and are representative of three independent experiments.
# [7] = tested on: Human aortic smooth muscle cells (HASMC); test: Cell proliferation ELISA (BrdU incorporation); assay type: cell-based; details: flavopiridol 75 nmol/L; bFGF- and thrombin-induced
# Method: Cell culture—Human aortic smooth muscle cells (HASMC) were obtained from Clonetics and were cultured as previously described^18. Cells were used at passages 5-9. Prior to performing experiments, cells were growth-arrested at 80% confluence for 48 h with medium containing 0.2% fetal bovine serum. Cell proliferation ELISA—Cell proliferation was measured by ELISA (Amersham Life Science). HASMC were grown in gelatin-coated 96-well plates and made quiescent. Cells were treated with 10 ng/ml bFGF, 2 U/ml thrombin, or vehicle for 24 h. Flavopiridol (75 nmol/L) was administered 1 h prior to growth factor treatment. 5-Bromo-2′-deoxyuridine (BrdU) was added to a final concentration of 10 μmol/L during the last 2 h of treatment. BrdU incorporation was measured as described^19. Results are expressed as mean±SEM for 12 samples per condition from two independent experiments.
# PCNA = test: Western blot of PCNA in HASMC; assay type: cell-based, human; details: flavopiridol 75 nmol/L pretreatment, 24 h
# Method: as §1
# [8] = in vivo; cited from earlier work
# neointimal formation = details: instilled into the carotid artery at the time of injury; cited from earlier work
compound,measurement,setting,value
"CN1CC[C@H](c2c(O)cc(O)c3c(=O)cc(-c4ccccc4Cl)oc23)[C@H](O)C1 [flavopiridol, (−)-cis, -5,7-dihydroxy-2-(2-chlorophenyl)-8-[4-(3-hydroxy-1-methyl)piperidinyl]-4H-benzopyran-4-one]",bFGF- and thrombin-induced upregulation of cyclin D1 protein,cyclin D1,completely blocked
same,HASMC viability (trypan blue exclusion),[1],does not decrease HASMC viability
same,HASMC viability (trypan blue exclusion),[1]; listed as Flavopiridol,no effect
same,thrombin- and bFGF-induced hyperphosphorylation of Rb,Rb,inhibited; also recorded: blocked
same,Cdk2-positive cells in the neointima vs untreated rats,"[2]; 7 and 14 days after injury, 5 mg/kg by gavage",much less common
same,reduction of neointimal area,"[2]; 7 days after injury, 5 mg/kg by gavage",35%
same,PCNA-positive nuclei in the neointima,"[2]; 7 days after injury, untreated 31.1±7.2%",11.8±1.5%
same,reduction of neointimal area,"[2]; 14 days after injury, 5 mg/kg by gavage",39%
same,PCNA-positive nuclei in the neointima,[2]; 14 days after injury,10.4±2.0%
same,signs of toxicity related to drug administration,"[2]; rat, in vivo, 5 mg/kg",no overt signs of toxicity
same,thrombin- and bFGF-induced Erk1 and Erk2 activity (in-gel kinase),[3]; flavopiridol 75 nmol/L,no effect
same,thrombin- and bFGF-induced phosphorylation of Erk1 and Erk2,[4]; flavopiridol 75 nmol/L,no effect
same,bFGF-induced increase in cell number,[5],efficiently blocked
same,median serum concentrations,[6],425 nmol/L
same,bFGF- and thrombin-induced increases in histone H1 kinase (cyclin-dependent kinase) activity,Cdc2 and Cdk2,totally blocked; also recorded: inhibited
same,inhibition of SMC proliferation,[7],near complete inhibition
same,growth factor-induced increased expression of PCNA,PCNA,blocked
same,biological half-life,[8],2.5 hrs
"COc1cccc(-c2cc(=O)c3ccccc3o2)c1N [PD98059, reference compound]",thrombin- and bFGF-induced Erk1 and Erk2 activity (in-gel kinase),[3]; PD98059 30 μmol/L pretreatment 60 min,inhibitable
same,thrombin- and bFGF-induced phosphorylation of Erk1 and Erk2,[4]; PD98059 30 μmol/L,blocked
COc1ccc(CNc2nc(N(CCO)CCO)nc3c2ncn3C(C)C)cc1 [CVT-313],neointimal formation,neointimal formation,can also inhibit neointimal formation
